Laboratory results as given in patent US9593149B2, “Amylin and calcitonin receptor agonist” (Novo Nordisk A/S, priority 2014, dated 2017).
pEC50: −log10 of the molar value. Numbered stars: 1 amine (or outer) side, 2 acyl side, 3 side chain; on linkers, the order of the positions; unused ones are H or OH. Peptide text beside a SMILES is read from it. * marks the point of attachment. C18 diacid = O=C(O)CCCCCCCCCCCCCCCCC(=O)*; C16 diacid = O=C(O)CCCCCCCCCCCCCCC(=O)*; γGlu = O=C(O)[C@H](CCC(=O)[*:2])N[*:1]; C14 diacid = O=C(O)CCCCCCCCCCCCC(=O)*

Legend:
[1] = Assay (X) pK, T½ in rat; format: in vivo, Sprague Dawley rats; conditions: for PK rat iv T½: i.v.; for PK rat sc T½: s.c.
Method: Assay (X)—pK—Determination of T½ in Rat
Pharmacokinetic (PK) studies rats were conducted in order to determine the T½ of mimylin peptide after i.v. and s.c. administration.
T½ values of the mimylin derivates of the invention is determined by pharmacokinetic studies in Sprague Dawley male rats, from Taconic Europe and the principles of laboratory animal care are followed.
An acclimatisation period of approximately 7 days was allowed before the animals entered the study. At start of the acclimatisation period the rats were in the weight range of 250-400 g.
The studies were conducted in an animal room which was illuminated to give a cycle of approximately 12 hours light and 12 hours darkness. The animals were group housed and had food and water ad lib. The animals were weighed on the days of dosing.
In the present studies the test substances were administered subcutaneously or intravenously in approximately 20 nmol/kg dose. The animals received a single subcutaneous injection to the neck for subtaneous administration or directly into the tail vein for intravenous administration. Each test substance was given to typically three but in some cases two or four animals.
A full plasma concentration-time profile, employing 8-10 sampling points, was obtained from each animal. In example blood samples were collected according to the following schedule: After subcutaneous or intravenous administration:
At each sampling time, 0.08 to 0.10 ml of blood was drawn from each animal. The blood samples were taken in the sublingual vein via venous puncture and the use of a capillary tube.
The blood samples were stabilised with EDTA. Blood samples were kept on ice for max 20 min. before centrifugation. Plasma was separated using centrifugation (i.e. at 4° C., 10 min., 1500G) and was immediately transferred to Micronic tubes or PCR plates. Approximately 40 μl plasma was transferred and was stored at −20° C. until assayed. The plasma samples were assayed for the content of mimylin compound by LCMS
The plasma concentration-time profiles were analysed by a non-compartmental pharmacokinetic analysis (NCA) using Phoenix WinNonlin 6.3 (Pharsight Inc., Mountain View, Calif., USA). NCA was performed using the individual plasma concentration-time profiles from each animal. T½ is the terminal half-life=In2/λz and was determined from λz, the first order rate constant associated with the terminal (log-linear) portion of the curve, estimated by linear regression of time vs. log concentration.

[2] = Assay (IV) determination of solubility; format: physicochemical
Method: Assay (IV)—Determination of Solubility
The mimylin peptide was dissolved in water at ˜500 nmol/ml and mixed 1:1 with a series of buffers (100 mM glycylglycine pH 3.0, 100 mM glycylglycine pH 4.0, 100 mM glycylglycine pH 5.0, 100 mM bistrispropane pH 6.0, 100 mM bistrispropane pH 6.5, 100 mM bistrispropane pH 7.0, 100 mM bistrispropane pH 7.5, 100 mM bistrispropane pH 8.0).

[3] = Assay (IX) pK, T½ in mini-pig; format: in vivo, Göttingen mini-pigs; conditions: i.v.
How it was run: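 Female Göttingen mini-pigs (5–12 months, 15–35 kg, fed freely) received a single i.v. dose of approximately 5 nmol/kg via central venous catheter, typically n=3. Plasma was sampled from pre-dose to 240 h (sometimes 288 h) and quantified by LC-MS. T½ was derived by non-compartmental analysis from the terminal log-linear slope (ln2/λz).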

[4] = target: T1, human calcitonin (a) receptor, BHK570 cells (Homo sapiens, UniProt P30988); experiment: Assay (II)b functional CRE-luciferase assay without albumin, human calcitonin receptor; format: cell-based; conditions: Tested without HSA; read-out: hCTR funct. EC50
T1 construct: host or cells: BHK570
T1 sequence (P30988 25-474): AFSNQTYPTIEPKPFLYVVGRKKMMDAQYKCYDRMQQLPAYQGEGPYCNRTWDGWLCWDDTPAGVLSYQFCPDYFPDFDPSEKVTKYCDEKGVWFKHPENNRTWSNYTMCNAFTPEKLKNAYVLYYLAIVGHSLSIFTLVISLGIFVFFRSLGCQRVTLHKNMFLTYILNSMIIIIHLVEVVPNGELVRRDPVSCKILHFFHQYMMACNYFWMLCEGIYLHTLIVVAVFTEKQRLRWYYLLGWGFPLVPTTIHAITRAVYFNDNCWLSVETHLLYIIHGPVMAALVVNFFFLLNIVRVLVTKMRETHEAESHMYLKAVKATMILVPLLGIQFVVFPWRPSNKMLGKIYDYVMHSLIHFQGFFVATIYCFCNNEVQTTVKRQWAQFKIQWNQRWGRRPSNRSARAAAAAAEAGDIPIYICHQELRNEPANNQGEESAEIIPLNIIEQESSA
How it was run: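 BHK570 cells stably expressing human calcitonin receptor with CRE-luciferase reporter, plus RAMP-3 for the amylin 3(a) line. Cells stimulated 3 hours at 37 °C in albumin-free assay medium (0.1% ovalbumin, 10 mM Hepes pH 7.4); cAMP-driven luciferase read by luminescence.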

[5] = target: T2, human amylin 3(a) receptor (human calcitonin receptor + RAMP-3), BHK570 cells (Homo sapiens, UniProt O60896+P30988); experiment: Assay (II)b functional CRE-luciferase assay without albumin, human amylin receptor; format: cell-based; conditions: Tested without HSA; read-out: hAmylin-R funct. EC50
T2 construct: host or cells: BHK570
How it was run: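 Agonism measured as CRE-driven luciferase luminescence after 3 h sample exposure at 37 °C, without albumin (0.1% ovalbumin, Hepes pH 7.4 medium). Reporter cells: BHK570 carrying human calcitonin receptor, co-transfected with RAMP-3 to form the amylin 3(a) receptor.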

[6] = target: T1, human calcitonin (a) receptor, BHK570 cells; experiment: Assay (II)a functional CRE-luciferase assay with albumin, human calcitonin receptor; format: cell-based; conditions: Tested with HSA; read-out: hCTR funct. EC50
From the text: (§1) Assay(II)a—Human Calcitonin and Amylin Receptor Assay
(§2) 1. Luciferase Assay Outline
(§3) Activation of calcitonin and amylin (co-expression of calcitonin receptor and receptor activity modifying proteins (RAMP)) receptors lead to increased intracellular concentrations of cAMP. Consequently, transcription is activated by promoters containing multiple copies of the cAMP response element (CRE). It is thus possible to measure amylin activity by the use of a CRE luciferase reporter gene introduced into BHK cells also expressing calcitonin or amylin receptors.
(§4) 2. Construction of Calcitonin (a)—and Amylin 3(a)—Receptor/CRE-Luc Cell Line.
(§5) A BHK570 cell line was stably transfected with the human calcitonin receptor and a CRE-responsive luciferase reporter gene. The cell line was further transfected with RAMP-3, using standard methods. This turns the calcitonin receptor into an amylin 3(a) receptor. Methotrexate, Neomycin, and Hygromycin are selection markers for luciferase, the calcitonin receptor, and RAMP-3, respectively.
(§6) To perform activity assays, BHK calcitonin (a) receptor- or amylin 3(a)-receptor/CRE-luc cells were seeded in white 96 well culture plates at a density of about 20.000 cells/well. […] After incubation overnight at 37° C. and 5% CO2, the growth medium was replaced by 50 μl/well assay medium (DMEM (without phenol red), Glutamax™, 10% FBS, and 10 mM Hepes, pH 7.4). Further, 50 μl/well of standard or sample in assay buffer were added.
(§7) After 3 hours incubation at 37° C. and 5% CO2, the assay medium with standard or sample were removed and replaced by 100 μl/well PBS. Further, 100 μl/well LucLite™ was added. The plates were sealed and incubated at room temperature for 30 minutes. Finally, luminescence was tested on a TopCounter (Packard) in SPC (single photon counting) mode.

[7] = target: T2, human amylin 3(a) receptor (human calcitonin receptor + RAMP-3), BHK570 cells; experiment: Assay (II)a functional CRE-luciferase assay with albumin, human amylin receptor; format: cell-based; conditions: Tested with HSA; read-out: hAmylin-R funct. EC50
From the text: as §1, §2, §3, §4, §5, §6, §7

T2 sequence (O60896 24-148, one chain of several): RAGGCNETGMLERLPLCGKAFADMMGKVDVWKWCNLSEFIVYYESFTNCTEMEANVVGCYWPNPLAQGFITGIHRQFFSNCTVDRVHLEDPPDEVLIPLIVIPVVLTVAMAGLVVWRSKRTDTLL

| PK rat iv T½ [1] [h] | PK rat sc T½ [1] [h] | Solubility ([2]; pH 3.0) | Solubility ([2]; pH 4.0) | Solubility ([2]; pH 5.0) | Solubility ([2]; pH 6.0) | Solubility ([2]; pH 6.5) | Solubility ([2]; pH 7.0) | Solubility ([2]; pH 7.5) | Solubility ([2]; pH 8.0) | PK mini pig iv T½ [3] [h] | SMILES | further results |
| --- | --- | --- | --- | --- | --- | --- | --- | --- | --- | --- | --- | --- |
| 3 | 3 | ≧200 μM | ≧200 μM | ≧200 μM | ≧200 μM | ≧200 μM | ≧200 μM | ≧200 μM | ≧200 μM | 2 | CC(C)C[C@H](NC(=O)[C@H](C)NC(=O)[C@H](C)NC(=O)[C@@H](NC(=O)[C@H](CO)NC(=O)[C@H](CC(C)C)NC(=O)[C@H](CCC(=O)O)NC(=O)[C@H](CO)NC(=O)[C@H](C)NC(=O)[C@H](CCC(=O)O)NC(=O)CCCCCCCCCCCCC(=O)O)[C@@H](C)O)C(=O)NCC(=O)N[C@@H](CCCNC(=N)N)C(=O)N[C@@H](CC(C)C)C(=O)N[C@@H](CO)C(=O)N[C@@H](C)C(=O)N[C@@H](CCC(=O)O)C(=O)N[C@@H](CC(C)C)C(=O)N[C@@H](Cc1cnc[nH]1)C(=O)N[C@@H](CCC(=O)O)C(=O)N[C@@H](CC(C)C)C(=O)N[C@@H](C)C(=O)N[C@H](C(=O)N[C@@H](CC(C)C)C(=O)N1CCC[C@H]1C(=O)N[C@@H](CCCNC(=N)N)C(=O)N[C@H](C(=O)N[C@@H](CCC(=O)O)C(=O)N[C@H](C(=O)NCC(=O)N1CCC[C@H]1C(=O)N[C@@H](CCC(=O)O)C(=O)N[C@@H](CO)C(=O)N1CCC[C@H]1C(N)=O)[C@@H](C)O)[C@@H](C)O)[C@@H](C)O [Ex. #4, [N-terminal(C14 diacid)]mimylin] ({C14 diacid}-EASELSTAALGRLSAELHELATLPRTETGPESP-NH2) | – |
| 3 | 3 | ≧200 μM | ≧200 μM | ≧200 μM | ≧200 μM | ≧200 μM | ≧200 μM | ≧200 μM | ≧200 μM | 17 | CC(C)C[C@H](NC(=O)[C@H](C)NC(=O)[C@H](C)NC(=O)[C@@H](NC(=O)[C@H](CO)NC(=O)[C@H](CC(C)C)NC(=O)[C@H](CCC(=O)O)NC(=O)[C@H](CO)NC(=O)[C@H](C)NC(=O)[C@H](CCC(=O)O)NC(=O)CCCCCCCCCCCCCCC(=O)O)[C@@H](C)O)C(=O)NCC(=O)N[C@@H](CCCNC(=N)N)C(=O)N[C@@H](CC(C)C)C(=O)N[C@@H](CO)C(=O)N[C@@H](C)C(=O)N[C@@H](CCC(=O)O)C(=O)N[C@@H](CC(C)C)C(=O)N[C@@H](Cc1cnc[nH]1)C(=O)N[C@@H](CCC(=O)O)C(=O)N[C@@H](CC(C)C)C(=O)N[C@@H](C)C(=O)N[C@H](C(=O)N[C@@H](CC(C)C)C(=O)N1CCC[C@H]1C(=O)N[C@@H](CCCNC(=N)N)C(=O)N[C@H](C(=O)N[C@@H](CCC(=O)O)C(=O)N[C@H](C(=O)NCC(=O)N1CCC[C@H]1C(=O)N[C@@H](CCC(=O)O)C(=O)N[C@@H](CO)C(=O)N1CCC[C@H]1C(N)=O)[C@@H](C)O)[C@@H](C)O)[C@@H](C)O [compound 3, [N-terminal(C16 diacid)]mimylin] ({C16 diacid}-EASELSTAALGRLSAELHELATLPRTETGPESP-NH2) | – |
| – | – | – | – | – | – | – | – | – | – | – | CC(C)C[C@H](NC(=O)[C@H](C)NC(=O)[C@H](C)NC(=O)[C@@H](NC(=O)[C@H](CO)NC(=O)[C@H](CC(C)C)NC(=O)[C@H](CCC(=O)O)NC(=O)[C@H](CO)NC(=O)[C@H](C)NC(=O)CC[C@H](NC(=O)CCCCCCCCCCCCCCCCC(=O)O)C(=O)O)[C@@H](C)O)C(=O)NCC(=O)N[C@@H](CCCNC(=N)N)C(=O)N[C@@H](CC(C)C)C(=O)N[C@@H](CO)C(=O)N[C@@H](C)C(=O)N[C@@H](CCC(=O)O)C(=O)N[C@@H](CC(C)C)C(=O)N[C@@H](Cc1c[nH]cn1)C(=O)N[C@@H](CCC(=O)O)C(=O)N[C@@H](CC(C)C)C(=O)N[C@@H](C)C(=O)N[C@H](C(=O)N[C@@H](Cc1ccc(O)cc1)C(=O)N1CCC[C@H]1C(=O)N[C@@H](CCCNC(=N)N)C(=O)N[C@H](C(=O)N[C@@H](CCC(=O)O)C(=O)N[C@H](C(=O)NCC(=O)N[C@@H](CO)C(=O)NCC(=O)N[C@@H](CO)C(=O)N1CCC[C@H]1C(N)=O)[C@@H](C)O)[C@@H](C)O)[C@@H](C)O [compound 58, [N-terminal(C18 diacid-gGlu), des1, 23Y, 30S, 31G]mimylin] ({C18 diacid-γGlu}-ASELSTAALGRLSAELHELATYPRTETGSGSP-NH2) | pEC50 [4]: 11.00; pEC50 [5]: 11.00; pEC50 [6]: 10.82; solubility at 18 h ([2]; bistrispropane buffer, pH 6.5): ≥ 200 µM; solubility at 18 h ([2]; bistrispropane buffer, pH 7.5): ≥ 200 µM; solubility at 18 h ([2]; bistrispropane buffer, pH 6.0): ≥ 200 µM; solubility at 18 h ([2]; bistrispropane buffer, pH 7.0): ≥ 200 µM; solubility at 18 h ([2]; bistrispropane buffer, pH 8.0): ≥ 200 µM; solubility at 18 h ([2]; glycylglycine buffer, pH 3.0): ≥ 200 µM; solubility at 18 h ([2]; glycylglycine buffer, pH 4.0): ≥ 200 µM; solubility at 18 h ([2]; glycylglycine buffer, pH 5.0): ≥ 200 µM; pEC50 [7]: 10.62 |
